Reference: ChEMBL document CHEMBL5614440, “Development of Novel Indole-Based Covalent Inhibitors of TEAD as Potential Antiliver Cancer Agents” (J Med Chem, 2024)
pIC50: −log10 of the molar value.

How the values were obtained:
[1] = test system: HEK293T; assay: Inhibition of TEAD (unknown origin) expressed in HEK293T cells transfected with 8xGTIIC-luciferase at 10 uM by dual luciferase reporter assay relative to control; format: cell-based; conditions: Homo sapiens
[2] = test system: Huh-7; assay: Antiproliferative activity against human Huh-7 cells incubated for 3 days by CCK8 assay; format: functional, cell-based; conditions: Huh-7, 72 h
[3] = test system: Huh-7; assay: (§1) Inhibition of TEAD transcription in human Huh-7 cells transfected with 8xGTIIC-luciferase by dual luciferase reporter assay; format: cell-based
[4] = test system: Huh-7; assay: Inhibition of TEAD transcription in human Huh-7 cells transfected with 8xGTIIC-luciferase assessed as downregulation of CTGF protein expression by Western blotting analysis; format: cell-based; conditions: dose 1.25-15 µM
[5] = test system: Huh-7; assay: Antitumor activity against human Huh-7 cells xenografted in NSG mouse assessed as tumor growth inhibition at 100 mg/kg, po administered every 3 days for 24 days and measured every 3 days; format: functional; conditions: Huh-7, 576 h, time 24 day, read-out: TGI
[6] = test system: Huh-7; assay: Antiproliferative activity against human Huh-7 cells at 10 uM incubated for 3 days by CCK8 assay; format: functional; conditions: time 3 day
[7] = as §1; format: cell-based
[8] = Antiproliferative activity against mouse AML12 cells at 10 uM incubated for 3 days by CCK8 assay; format: toxicity, cell-based; conditions: time 3 day
[9] = test system: Huh-7; assay: Inhibition of TEAD transcription in human Huh-7 cells transfected with 8xGTIIC-luciferase assessed as downregulation of CTGF mRNA expression incubated for 24 hrs by RT-PCR analysis; format: cell-based; conditions: dose 1.25-10 µM

| SMILES | inhibition [1] | pIC50 [2] | further results |
| --- | --- | --- | --- |
| COc1cc2[nH]cc(C(=O)CCl)c2cc1OCc1ccccc1 | 53.7% | 5.42 |  |
| N#C/C(=C\c1c[nH]c2cc(Cl)c(OCc3ccc4ccccc4c3)cc12)C(N)=O | 47.3% | 5.39 |  |
| N#C/C(=C\c1c[nH]c2cc(Cl)c(OCC3CCC(F)(F)CC3)cc12)C(N)=O | 60.1% | 5.28 |  |
| O=C(CCl)NCc1c[nH]c2cc(Cl)c(OCc3ccccc3)cc12 | 97.8% | 5.92 | inhibition [3]: Dose-Dependent Effect; inhibition [4]: Dose-Dependent Effect |
| C=CC(=O)NCc1c[nH]c2cc(Cl)c(OCc3cccc4ccccc34)cc12 | 10.6% | 4.84 |  |
| CNC(=O)c1cc(Oc2ccc(NC(=O)Nc3ccc(Cl)c(C(F)(F)F)c3)cc2)ccn1 [SORAFENIB] |  |  | inhibition in vivo at 100 mg/kg [5]: 76% |
| N#C/C(=C\c1c[nH]c2cc(Cl)c(OCc3cccc4ccccc34)cc12)C(N)=O | 51.3% |  | Activity [6]: 70% |
| N#C/C(=C\c1c[nH]c2cc(Cl)c(OCc3cccc(C(F)(F)F)c3)cc12)C(N)=O | 59.7% | 5.28 |  |
| Clc1cc2[nH]ccc2cc1OCc1ccccc1 | 68.3% | 4.49 | pIC50 [7]: 5.30; inhibition at 72 h, 10 µM [8]: 20.3% |
| C=CC(=O)NCc1c[nH]c2cc(Cl)c(OCc3ccc4ccccc4c3)cc12 | 1.5% | 4.52 |  |
| C=CC(=O)NCc1c[nH]c2cc(Cl)c(OCc3ccccc3)cc12 |  | < 4.30 |  |
| O=C(CCl)c1c[nH]c2cc(Cl)c(OCc3ccc(C(F)(F)F)cc3)cc12 |  | 4.77 |  |
| O=C(CCl)c1c[nH]c2cc(Cl)c(OCc3ccc4ccccc4c3)cc12 | 95.6% | 5.64 | pIC50 [7]: 6.06; inhibition [4]: Dose-Dependent Effect; inhibition [9]: Dose-Dependent Effect |
| O=C(CCl)c1c[nH]c2cc(Cl)c(OCc3ccccc3)cc12 | 74.6% | 5.57 |  |
